Columns and labels:
Type in all cases: cell-based
[1] = target: T1, human prostanoid DP1 receptor (Homo sapiens, UniProt Q13258); assay: FLIPR Ca2+ signaling PG antagonist assay, DP1 stable cell line; conditions: HEK-293 EBNA cells, human recombinant DP1 with chimeric Gqs; standard agonist BW 245C; read-out: DP (Kb, PG antagonist activity)
T1 construct: expressed in transfected cells
T1 sequence (Q13258 1-359): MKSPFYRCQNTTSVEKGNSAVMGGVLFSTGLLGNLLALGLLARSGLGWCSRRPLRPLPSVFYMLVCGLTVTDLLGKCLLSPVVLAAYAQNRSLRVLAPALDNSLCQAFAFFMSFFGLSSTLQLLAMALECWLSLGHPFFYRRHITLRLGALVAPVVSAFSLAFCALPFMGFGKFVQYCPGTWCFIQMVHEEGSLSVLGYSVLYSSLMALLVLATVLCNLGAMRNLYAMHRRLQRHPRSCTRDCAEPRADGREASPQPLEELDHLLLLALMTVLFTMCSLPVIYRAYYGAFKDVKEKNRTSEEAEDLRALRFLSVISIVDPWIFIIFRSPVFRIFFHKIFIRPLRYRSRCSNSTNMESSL
Protocol: (§1) The above compounds were tested for PG antagonist activity as follows using human recombinant prostanoid receptor (DP1, EP1-4, FP, IP and TP) stable cell lines: In order to measure the response of Gs and Gi coupled prostanoid receptors as a Ca^2+ signal, chimeric G protein cDNAs were used. Stable cell lines over-expressing human prostanoid DP1, EP1-4, FP, IP, and TP receptors were established as follows:
(§2) Briefly, human prostanoid DP1, EP2, and EP4 receptor cDNAs were co-transfected with chimeric Gqs cDNA containing a haemagglutanin (HA) epitope; human prostanoid EP3 receptors were co-transfected with chimeric Gqi-HA; human EP1, FP, IP, and TP receptor cDNAs were expressed with no exogenous G-proteins. Gqs and Gqi chimeric cDNAs (Molecular Devices, Sunnyvale, Calif., U.S.A.), as well as cDNAs of prostanoid receptors, were cloned into a pCEP4 vector with a hygromycin B selection marker. Transfection into HEK-293 EBNA (Epstein-Barr virus nuclear antigen) cells was achieved by the FuGENE 6 transfection Reagent (Roche Applied Science, Indianapolis, Ind., USA). Stable transfectants were selected according to hygromycin resistance. Because Gqs and Gqi contained an HA epitope, G-protein expression was detected by Western blotting analysis using anti-mouse HA monoclonal antibody and horseradish peroxidase (HRP)-conjugated secondary antibody, while functional expression of prostanoid receptors was detected by FLIPR screening (Matias et al., 2004). These stable cell lines were validated using previously published antagonists at 10 μM against serial dilutions of standard agonists by FLIPR functional assays for Ca^2+ Signaling (as described below).
(§3) Ca^2+ signaling studies were performed using a FLIPR TETRA system (Molecular Devices, Sunnyvale, Calif., USA) in the 384-format. This is a high-throughput instrument for cell-based assays to monitor Ca^2+ signaling associated with GPCRs and ion channels. Cells were seeded at a density of 5×10^4 cells/well in BioCoat poly-D-lysine coated, black wall, clear bottom 384-well plates (BD Biosciences, Franklin lakes, NJ, USA) and allowed to attach overnight in an incubator at 37° C. The cells were then washed twice with HBSS-HEPES buffer (Hanks' balanced salt solution without bicarbonate and phenol red, 20 mM HEPES, pH 7.4) using an ELx405 Select CW Microplate Washer (BioTek, Winooski, Vt., USA). After 60 min of dye-loading in the dark using the Ca^2+-sensitive dye Fluo-4AM (Invitrogen, Carlsbad, Calif., USA), at a final concentration of 2×10^−6M, the plates were washed 4 times with HBSS-HEPES buffer to remove excess dye and leaving 50 μl of buffer in each well. The plates were then placed in the FLIPR TETRA instrument and allowed to equilibrate at 37° C. Compounds were added in a 25 μl volume to each well to give final concentrations of 0.1 μM, 0.3 μM, 1 μM, 3 μM, 10 μM, and 30 μM; or 0.067 μM, 0.1 μM, 0.2 μM, 0.3 μM, 0.67 μM, and 1 μM for cells over-expressing TP receptors. After 4.5 minutes, a 7-point serial dilution of the standard agonist for the corresponding receptor, in a 25 μl volume was injected at the final concentrations from 10^−11M to 10^−5M in 10-fold serial dilution increments for cells expressing human recombinant DP1, EP1, EP2, EP3, EP4, FP, and IP receptors. The dose range for the standard agonist for human recombinant TP receptors was from 10^−12M to 10^−6M. HBSS-HEPES buffer was used as the negative control for the standard agonists. Cells were excited with LED (light emitting diode) excitation at 470-495 nm and emission was measured through an emission filter at 515-575 nm. Assay plates were read for 3.5 minutes using the FLIPR^TETRA. The peak increase in fluorescence intensity was recorded for each well. On each plate, negative controls, dose response of positive controls, and co-treatments of antagonist-agonist for each dose were in triplicates. Standard agonists were as follows: DP=BW 245C, EP1-EP4=PGE2, FP=17-phenyl-PGF2α, IP=Cicaprost, and TP=U-46619. […]

[2] = target: T2, human prostanoid EP3 receptor (Homo sapiens, UniProt P43115); assay: FLIPR Ca2+ signaling PG antagonist assay, EP3 stable cell line; conditions: HEK-293 EBNA cells, human recombinant EP3 with chimeric Gqi; standard agonist PGE2
T2 construct: expressed in transfected cells
T2 sequence (P43115 1-390): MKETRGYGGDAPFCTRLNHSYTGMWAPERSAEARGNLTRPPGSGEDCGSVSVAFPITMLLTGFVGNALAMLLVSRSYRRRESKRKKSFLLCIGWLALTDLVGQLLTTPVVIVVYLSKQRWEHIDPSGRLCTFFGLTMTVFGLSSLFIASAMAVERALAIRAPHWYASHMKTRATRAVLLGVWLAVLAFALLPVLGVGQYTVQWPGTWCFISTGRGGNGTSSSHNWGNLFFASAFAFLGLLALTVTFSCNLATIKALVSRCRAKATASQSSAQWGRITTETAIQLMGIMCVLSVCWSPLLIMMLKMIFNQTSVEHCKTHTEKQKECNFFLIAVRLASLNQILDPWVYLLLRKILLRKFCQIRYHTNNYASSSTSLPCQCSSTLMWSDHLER
Protocol: as §1, §2, §3

[3] = target: T3, human prostanoid EP4 receptor (Homo sapiens, UniProt P35408); assay: FLIPR Ca2+ signaling PG antagonist assay, EP4 stable cell line; conditions: HEK-293 EBNA cells, human recombinant EP4 with chimeric Gqs; standard agonist PGE2
T3 construct: expressed in transfected cells
T3 sequence (P35408 whole entry): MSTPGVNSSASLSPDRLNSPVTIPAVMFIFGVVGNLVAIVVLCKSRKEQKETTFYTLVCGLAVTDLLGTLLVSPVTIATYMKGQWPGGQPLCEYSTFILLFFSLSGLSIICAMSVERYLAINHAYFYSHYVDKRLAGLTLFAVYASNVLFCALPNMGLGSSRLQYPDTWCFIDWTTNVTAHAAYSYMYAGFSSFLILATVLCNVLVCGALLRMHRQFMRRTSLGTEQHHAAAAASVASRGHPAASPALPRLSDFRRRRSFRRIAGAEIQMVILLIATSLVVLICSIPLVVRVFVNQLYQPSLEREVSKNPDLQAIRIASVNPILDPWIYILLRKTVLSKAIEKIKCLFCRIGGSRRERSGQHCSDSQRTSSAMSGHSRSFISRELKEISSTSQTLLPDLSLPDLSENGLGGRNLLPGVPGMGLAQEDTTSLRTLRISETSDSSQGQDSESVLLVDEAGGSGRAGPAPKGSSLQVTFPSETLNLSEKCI
Protocol: as §1, §2, §3

[4] = target: T4, human prostanoid IP receptor (Homo sapiens, UniProt P43119); assay: FLIPR Ca2+ signaling PG antagonist assay, IP stable cell line; conditions: HEK-293 EBNA cells, human recombinant IP, no exogenous G-protein; standard agonist Cicaprost
T4 construct: expressed in transfected cells
T4 sequence (P43119 whole entry): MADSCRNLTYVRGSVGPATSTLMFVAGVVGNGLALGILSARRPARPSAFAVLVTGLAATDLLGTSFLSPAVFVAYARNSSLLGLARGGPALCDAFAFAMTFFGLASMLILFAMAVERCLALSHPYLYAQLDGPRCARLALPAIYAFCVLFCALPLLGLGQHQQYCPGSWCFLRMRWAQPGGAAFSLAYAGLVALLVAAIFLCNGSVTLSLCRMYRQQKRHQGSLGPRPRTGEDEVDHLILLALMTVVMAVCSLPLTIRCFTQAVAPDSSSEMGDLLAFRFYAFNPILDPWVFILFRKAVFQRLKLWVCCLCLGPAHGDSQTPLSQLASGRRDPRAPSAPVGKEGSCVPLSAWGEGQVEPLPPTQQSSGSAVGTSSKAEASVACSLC
Protocol: as §1, §2, §3

Compound `CCC(CC)COc1ccc(Cl)cc1Cn1ncc2cc(C(N)=O)ncc21` [Example 62, 1-[5-Chloro-2-(2-Ethyl-Butoxy)-Benzyl]-1H-Pyrazolo[3,4-C]Pyridine-5-Carboxylic Acid Amide] has a Kb [1] of 5.8 µM, a Kb [2] of no less than 10 µM and a Kb [3] of no less than 10 µM. For the same compound, the Kb [4] was no less than 10 µM.

Work on `CC1(COc2ccc(Br)cc2Cn2ncc3cc(C(=O)O)ccc32)CC1` [Example 19] yielded a Kb [1] of 1.2 µM, a Kb [2] of 3.6 µM and a Kb [3] of 0.014 µM. The Kb [4] was 4.6 µM.

With `CCC(CC)COc1ccc(C(F)(F)F)cc1Cn1nc(C)c2cc(C(=O)O)ccc21` [Example 26, 1-[2-(2-Ethyl-Butoxy)-5-Trifluoromethyl-Benzyl]-3-Methyl-1H-Indazole-5-Carboxylic Acid] the Kb [1] was 1.7 µM, the Kb [2] was 3.3 µM and the Kb [3] was 0.07 µM. It also gave a Kb [4] of 1.8 µM.

`Cc1cc2cc(C(=O)O)ccc2n1Cc1cc(Br)ccc1OCC(C)C` [Example 66, 1-(5-Bromo-2-Isobutoxy-Benzyl)-2-Methyl-1H-Indole-5-Carboxylic Acid] showed a Kb [1] of no less than 10 µM, a Kb [2] of no less than 10 µM and a Kb [3] of 1.4 µM. It also gave a Kb [4] of 4.6 µM.

`CC(C)COc1cc(Cl)c(Cl)cc1Cn1ncc2cc(C(=O)O)ccc21` [Example 49, 1-(4,5-Dichloro-2-Isobutoxy-Benzyl)-1H-Indazole-5-Carboxylic Acid] was tested, and the Kb [1] was 3.5 µM, the Kb [2] was no less than 10 µM and the Kb [3] was 0.05 µM. The Kb [4] was 3.2 µM.

With `O=C(O)c1cccc2nn(Cc3cc(Cl)ccc3OCC3CC3)cc12` [Example 35, 2-(5-Chloro-2-Cyclopropylmethoxy-Benzyl)-2H-Indazole-4-Carboxylic Acid] the Kb [1] was 1.9 µM, the Kb [2] was no less than 10 µM and the Kb [3] was 0.67 µM. The Kb [4] was no less than 10 µM.

`CCC(CC)COc1ccc(Cl)cc1Cn1nc(C)c2cc(C(=O)O)cnc21` [Example 60, 1-[5-Chloro-2-(2-Ethyl-Butoxy)-Benzyl]-3-Methyl-1H-Pyrazolo[3,4-B]Pyridine-5-Carboxylic Acid] gave a Kb [1] of 0.58 µM, a Kb [2] of 5.1 µM and a Kb [3] of 0.15 µM. The Kb [4] was 0.63 µM.

`Cc1nn(Cc2cc(Cl)ccc2OCC(C)C)c2ncc(C(=O)O)cc12` [Example 61, 1-(5-Chloro-2-Isobutoxy-Benzyl)-3-Methyl-1H-Pyrazolo[3,4-B]Pyridine-5-Carboxylic Acid] gave a Kb [1] of 0.74 µM, a Kb [2] of no less than 10 µM and a Kb [3] of 0.76 µM. The Kb [4] was 1.75 µM.

For `CC(C)(C)COc1ccc(Br)cc1Cn1ncc2cc(C(=O)O)ccc21` [Example 52, 1-[5-Bromo-2-(2,2-Dimethyl-Propoxy)-Benzyl]-1H-Indazole-5-Carboxylic Acid], the Kb [1] was 2.3 µM, the Kb [2] was 2.1 µM and the Kb [3] was 0.01 µM. For the same compound, the Kb [4] was no less than 10 µM.

`O=C(O)c1cccc2c1cnn2Cc1cc(Cl)ccc1OCc1ccc(Cl)cc1` [Example 40, 1-[5-Chloro-2-(4-Chloro-Benzyloxy)-Benzyl]-1H-Indazole-4-Carboxylic Acid] gave a Kb [1] of 1 µM, a Kb [2] of no less than 12 µM and a Kb [3] of 2.5 µM. For the same compound, the “IP (Kb, PG antagonist activity)” value [4] was “PAg”.

In the case of `CCC(CC)COc1ccc(Br)cc1Cn1nc(C)c2cc(C(=O)O)cnc21` [Example 59, 1-[5-Bromo-2-(2-Ethyl-Butoxy)-Benzyl]-3-Methyl-1H-Pyrazolo[3,4-B]Pyridine-5-Carboxylic Acid], the Kb [1] is reported as 0.52 µM, the Kb [2] is reported as 5.4 µM and the Kb [3] is reported as 0.19 µM. The Kb [4] was 0.54 µM.

In the case of `O=C(O)c1ccc2c(cnn2Cc2cc(Cl)ccc2OCc2ccccc2)c1` [Example 8, 1-(2-Benzyloxy-5-Chloro-Benzyl)-1H-Indazole-5-Carboxylic Acid], the Kb [1] is reported as 2.6 µM, the Kb [2] is reported as no less than 10 µM and the Kb [3] is reported as 1.3 µM. For the same compound, the Kb [4] was 2.8 µM.

Compound `Cc1nn(Cc2cc(Cl)ccc2OCC(C)C)c2ccc(C(=O)O)cc12` [Example 24, 1-(5-Chloro-2-Isobutoxy-Benzyl)-3-Methyl-1H-Indazole-5-Carboxylic Acid] has a Kb [1] of 0.16 µM, a Kb [2] of 2.44 µM and a Kb [3] of 0.15 µM. The Kb [4] was 1.43 µM.

`O=C(O)c1ccc2c(cnn2Cc2cc(C(F)(F)F)ccc2OCc2ccc(Cl)cc2)c1` [Example 32, 1-[2-(4-Chloro-Benzyloxy)-5-Trifluoromethyl-Benzyl]-1H-Indazole-5-Carboxylic Acid] gave a Kb [1] of 1.7 µM, a Kb [2] of no less than 10 µM and a Kb [3] of 5 µM. For the same compound, the Kb [4] was 7.4 µM.

`CC(C)COc1ccc(Br)cc1Cn1ncc2ccc(C(=O)O)cc21` [Example 42, 1-(5-Bromo-2-Isobutoxy-Benzyl)-1H-Indazole-6-Carboxylic Acid] showed a Kb [1] of 0.16 µM, a Kb [2] of 1.9 µM and a Kb [3] of 1.8 µM. For the same compound, the Kb [4] was 3.4 µM.

`CCC(CC)COc1ccc(Cl)cc1Cn1ncc2cc(C(=O)O)ccc21` [Example 2, 1-[5-Chloro-2-(2-Ethyl-Butoxy)-Benzyl]-1H-Indazole-5-Carboxylic ACID] showed a Kb [1] of 1.3 µM, a Kb [2] of 1.1 µM and a Kb [3] of 0.02 µM. The Kb [4] was 1.1 µM.

`CCC(CC)COc1ccc(OC(F)(F)F)cc1Cn1cc(C)c2cc(C(=O)O)ccc21` [Example 77, 1-[2-(2-Ethyl-Butoxy)-5-Trifluoromethoxy-Benzyl]-3-Methyl-1H-Indole-5-Carboxylic Acid] was tested, and the Kb [1] was 3.6 µM, the Kb [2] was no less than 10 µM and the Kb [3] was 1.5 µM. The Kb [4] was no less than 10 µM.

In the case of `CC(C)(O)COc1ccc(Br)cc1Cn1ncc2cc(C(=O)O)ccc21` [Example 53, 1-[5-Bromo-2-(2-Hydroxy-2-Methyl-Propoxy)-Benzyl]-1H-Indazole-5-Carboxylic Acid], the Kb [1] is reported as no less than 10 µM, the Kb [2] is reported as no less than 10 µM and the Kb [3] is reported as no less than 10 µM. It also gave a Kb [4] of no less than 10 µM.

Compound `Cc1nn(Cc2cc(Br)ccc2OCC2(C)CC2)c2ccc(C(=O)O)cc12` [Example 28, 1-[5-Bromo-2-(1-Methyl-Cyclopropylmethoxy)-Benzyl]-3-Methyl-1H-Indazole-5-Carboxylic Acid] has a Kb [1] of 0.73 µM, a Kb [2] of 2.22 µM and a Kb [3] of 0.04 µM. It also gave a Kb [4] of 1.53 µM.

From US10988474B2, “Compounds acting at multiple prostaglandin receptors giving a general anti-inflammatory response” (ALLERGAN, INC., priority 2011, dated 2021)
